# Test results taken from patent publication US20110038796A1, “Method of Nuclear Medical Photography Using Dual-Isotopes” (ATOMIC ENERGY COUNCIL-INSTITUTE OF NUCLEAR ENERGY RESEARCH, priority 2009, published 2011).
# Where a name gives a salt, the structure may show the parent alone.
# How the values were obtained:
# dopamine transporter [1] = assay: SPECT with [^99mTc]TRODAT-1 (single-isotope or dual-isotopes), specific uptake ratio in striatum; type: in vivo, Macaca Cyclopis
# Method: (§1) Please refer to FIG. 1, which is a flow view showing a preferred embodiment according to the present disclosure. As shown in the figure, the present disclosure is a method of nuclear medical photography using dual-isotopes, where effect of using dual isotopes on diagnosing anomalies of dopamine and serotonin in primate's brain is evaluated. The present disclosure comprises the following steps: (a) Obtaining control group 11: A control group is obtained, comprising at least one first individual applied with an imaging agent of single-isotope of [^99mTc]TRODAT-1 for dopamine transporter; at least one second individual applied with an imaging agent of single-isotope of [^123I]ADAM for serotonin transporter; and at least one third individual applied with imaging agents of dual-isotopes of [^99mTc]TRODAT-1 and [^123I]ADAM. Therein, the individuals are non-human primates, like Macaca Cyclopis.
# (§2) (b) Taking photos for control group 12: Photos of the first to the third individuals in the control group are taken through single photon emission computed tomography (SPECT). Therein, on taking the photo of the first individual applied with the single-isotope of [^99mTc]TRODAT-1, 90 mg/ml of KClO4 is applied to the first individual at first; and, then, after 20 minutes, 740 MBq (20 mCi) of [^99mTc]TRODAT-1 is injected from intravenous. After [^99mTc]TRODAT-1 is injected, a SPECT device equipped with dual-headed gamma cameras (Hawkeye, Millennium VG, General Elecral Medical System, Milwaukee, Wis. USA) coordinated with fan-beam collimators is used to take photos, where 15 dynamic sequence of brain images are taken during 30 minutes (2 min/frame). Therein, an energy window is set between 126 Kev and 154 Kev; data of 128×128 pixel-matrice are fetched; each photo are enlarged for 1.6 times; a photo is taken for each 3° from 360°; and, each of the two detectors is responsible for taking photos for 180°. After data are collected and processed through Metz filter with attenuation calibration, three three-dimensional (3D) photos of coronal, sagittal and transaxial sections are formed. On taking the photo of the second individual applied with the single-isotope of [^123I]ADAM, 185 MBq (5 mCi) of [^123I]ADAM is injected from intravenous; and, an energy window is set between 143 Kev and 175 Kev. On taking the photo of the third individual applied with the dual-isotopes, 90 mg/ml of KClO4 is applied to the […] at first; and, after 20 minutes, 740 MBq (20 mCi) of [^99mTc]TRODAT-1 and 185 MBq (5 mCi) of [^123I]ADAM are injected from intravenous almost simultaneously. Therein, an energy window for [^99mTc]TRODAT-1 is set between 129 Kev and 151 Kev and another energy window for [^123I]ADAM is set between 159 Kev and 175 Kev.
# (§3) (c) Analyzing photos of control group 13: Magnetic resonance imaging (MRI) photos of the first to the third individuals are taken to provide reference information for the following analysis:
# (§4) (c3) Analysis on dual-isotopes: The photo of the third individual applied with the dual-isotopes of [^123I]ADAM and [^99mTc]TRODAT-1 obtained in step (b) are processed through visual interpretation to figure out an SUR of [^99mTc]TRODAT-1 in striatum and an SUR of [^123I]ADAM in midbrain, thalamus, striatum and frontal cortex.
# serotonin transporter = assay: SPECT with [^123I]ADAM (single-isotope or dual-isotopes), specific uptake ratio in brain regions; type: in vivo, Macaca Cyclopis
# Method: as §1, §2, §3
# (c1) Analysis on [^123I]ADAM: The photo of the […] individual applied with the single-isotope of [^123I]ADAM obtained in step (b) are processed through visual interpretation to pick out regions of interest (ROI) abundant in serotonin transporter, like midbrain, thalamus, striatum and frontal cortex; and a region lack of serotonin transporter, like cerebellum, is set as background. Mean counts per pixel (MCPP) of the ROIs are deducted with MCPPs of the background and then are divided by the MCPPs of the background to figure out a specific uptake ratios (SUR) of the single-isotope of [^123I]ADAM.
# as §4
# dopamine transporter [2] = target: dopamine transporter (Homo sapiens, UniProt Q01959); details: cited from earlier work
# Chain of dopamine transporter (Homo sapiens, UniProt Q01959) (Q01959 whole entry): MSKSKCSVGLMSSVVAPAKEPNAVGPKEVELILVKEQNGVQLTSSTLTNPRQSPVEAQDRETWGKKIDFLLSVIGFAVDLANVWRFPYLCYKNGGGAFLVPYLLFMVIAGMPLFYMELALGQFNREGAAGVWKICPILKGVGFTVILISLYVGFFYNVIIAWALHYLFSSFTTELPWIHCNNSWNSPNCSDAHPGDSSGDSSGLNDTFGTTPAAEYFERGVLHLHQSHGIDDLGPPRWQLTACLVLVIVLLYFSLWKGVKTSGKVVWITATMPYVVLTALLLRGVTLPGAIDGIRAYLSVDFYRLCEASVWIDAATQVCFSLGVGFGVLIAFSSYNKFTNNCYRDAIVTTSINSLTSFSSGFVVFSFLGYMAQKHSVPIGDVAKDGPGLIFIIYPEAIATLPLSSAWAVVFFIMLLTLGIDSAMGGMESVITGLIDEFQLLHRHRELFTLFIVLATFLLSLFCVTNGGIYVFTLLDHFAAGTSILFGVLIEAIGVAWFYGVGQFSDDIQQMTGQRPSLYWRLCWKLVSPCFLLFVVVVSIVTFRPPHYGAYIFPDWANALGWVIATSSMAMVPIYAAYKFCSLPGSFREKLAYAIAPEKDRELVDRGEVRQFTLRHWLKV
# [3] = 180 to 210 minutes after injection
smiles,measurement,setting,value
CNCCC(Oc1ccc(C(F)(F)F)cc1)c1ccccc1 (stereo not drawn) [fluoxetine],[^99mTc]TRODAT-1 SURs after pretreatment with fluoxetine,"dopamine transporter [1]; dual-isotopes, 180 to 210 minutes after injection, pretreated with fluoxetine for 16 hours",no big changes
same,uptakes of [^99mTc]TRODAT-1 of striatum after pretreatment with fluoxetine versus not pretreated (conclusion),dopamine transporter [1]; pretreated with fluoxetine for 16 hours,no big difference
COC(=O)C(c1ccccc1)C1CCCCN1 (stereo not drawn) [methylphenidate HCl],uptakes of [^99mTc]TRODAT-1 of striatum after pretreatment with methylphenidate HCl (conclusion),dopamine transporter [1]; dual-isotopes,obviously reduced
same,[^99mTc]TRODAT-1 SURs after pretreatment with methylphenidate HCl,"dopamine transporter [1]; dual-isotopes, 180 to 210 minutes after injection, methylphenidate HCl 1 mg/kg 10 minutes before",greatly lowered
same,uptakes of [^123I]ADAM after pretreatment with methylphenidate HCl versus not pretreated,"serotonin transporter; midbrain, striatum, thalamus and frontal cortex, dual-isotopes, 180 to 210 minutes after injection, methylphenidate HCl 1 mg/kg",no big difference
same,specific uptakes of [^123I]ADAM after pretreatment with methylphenidate HCl versus not pretreated (conclusion),"serotonin transporter; midbrain, thalamus, striatum and frontal cortex",no big changes
same,[^123I]ADAM SURs after pretreatment with methylphenidate HCl,"serotonin transporter; striatum, thalamus and midbrain, dual-isotopes, methylphenidate HCl 1 mg/kg",no big changes
CN(C)Cc1ccccc1Sc1ccc([123I])cc1N [[^123I]ADAM],"[^123I]ADAM photos, single-isotope versus dual-isotopes",serotonin transporter; [3],no big difference
same,binding of [^123I]ADAM in brain regions (SPECT photos),"serotonin transporter; 180 to 210 minutes after injection, midbrain, thalamus and striatum, single-isotope or dual-isotopes",bound to regions abundant in serotonin transporter
same,"[^123I]ADAM SURs, single-isotope versus dual-isotopes","serotonin transporter; striatum, thalamus, midbrain and frontal cortex",no big difference
CN1[C@H]2CC[C@@H]1[C@@H](CN(CC[S-])CC[N-]CC[S-])[C@@H](c1ccc(Cl)cc1)C2.[O]=[99Tc+4] [[^99mTc]TRODAT-1],"[^99mTc]TRODAT-1 SUR of striatum, single-isotope versus dual-isotopes",dopamine transporter [1]; [3],no big difference
same,time to reach the highest binding level after injection,dopamine transporter [2],within two hours
